Measurements taken from patent US9522198B2, “Methods and compositions related to targeting tumors and wounds” (Sanford-Burnham Medical Research Institute, priority 2006, dated 2016).
“Also recorded” adds a separate entry of the source. Ends that are not written are not given here.

Legend:
fibronectin = details: reported, Akerman, Pilch et al. 2005; cited from earlier work
fibrinogen = target: T1, fibrinogen (Homo sapiens, UniProt P02671+P02675+P02679); details: reported, Akerman, Pilch et al. 2005; cited from earlier work
T1 sequence (P02671 20-629 limits assumed): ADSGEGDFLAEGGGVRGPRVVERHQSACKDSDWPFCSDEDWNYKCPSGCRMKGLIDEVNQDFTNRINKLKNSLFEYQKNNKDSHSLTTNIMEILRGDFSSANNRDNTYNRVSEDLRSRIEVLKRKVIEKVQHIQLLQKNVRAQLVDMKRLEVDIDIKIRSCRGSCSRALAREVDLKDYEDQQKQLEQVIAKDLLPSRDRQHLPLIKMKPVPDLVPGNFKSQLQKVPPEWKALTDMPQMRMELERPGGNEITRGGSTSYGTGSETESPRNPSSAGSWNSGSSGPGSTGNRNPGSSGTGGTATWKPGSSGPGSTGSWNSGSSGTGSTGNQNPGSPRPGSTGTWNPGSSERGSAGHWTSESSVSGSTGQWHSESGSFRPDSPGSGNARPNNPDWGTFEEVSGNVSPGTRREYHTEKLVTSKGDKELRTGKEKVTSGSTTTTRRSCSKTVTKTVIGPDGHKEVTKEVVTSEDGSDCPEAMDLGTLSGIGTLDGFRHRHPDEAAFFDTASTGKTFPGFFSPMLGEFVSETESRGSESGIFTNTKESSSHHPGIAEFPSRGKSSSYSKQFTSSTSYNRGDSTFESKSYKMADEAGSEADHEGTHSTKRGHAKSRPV
T1 sequence (P02675 31-491): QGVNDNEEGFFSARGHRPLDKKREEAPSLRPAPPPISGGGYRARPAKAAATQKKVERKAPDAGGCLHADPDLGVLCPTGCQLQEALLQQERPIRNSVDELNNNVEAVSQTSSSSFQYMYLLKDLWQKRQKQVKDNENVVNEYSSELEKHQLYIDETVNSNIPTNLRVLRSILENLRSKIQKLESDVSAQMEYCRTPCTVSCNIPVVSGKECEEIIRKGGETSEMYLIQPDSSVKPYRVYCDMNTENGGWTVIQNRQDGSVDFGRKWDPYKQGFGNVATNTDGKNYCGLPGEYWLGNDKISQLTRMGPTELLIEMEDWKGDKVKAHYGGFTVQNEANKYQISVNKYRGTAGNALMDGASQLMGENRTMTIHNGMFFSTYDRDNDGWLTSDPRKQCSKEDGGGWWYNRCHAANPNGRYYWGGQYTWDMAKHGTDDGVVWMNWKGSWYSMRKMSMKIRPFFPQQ
T1 sequence (P02679 27-453): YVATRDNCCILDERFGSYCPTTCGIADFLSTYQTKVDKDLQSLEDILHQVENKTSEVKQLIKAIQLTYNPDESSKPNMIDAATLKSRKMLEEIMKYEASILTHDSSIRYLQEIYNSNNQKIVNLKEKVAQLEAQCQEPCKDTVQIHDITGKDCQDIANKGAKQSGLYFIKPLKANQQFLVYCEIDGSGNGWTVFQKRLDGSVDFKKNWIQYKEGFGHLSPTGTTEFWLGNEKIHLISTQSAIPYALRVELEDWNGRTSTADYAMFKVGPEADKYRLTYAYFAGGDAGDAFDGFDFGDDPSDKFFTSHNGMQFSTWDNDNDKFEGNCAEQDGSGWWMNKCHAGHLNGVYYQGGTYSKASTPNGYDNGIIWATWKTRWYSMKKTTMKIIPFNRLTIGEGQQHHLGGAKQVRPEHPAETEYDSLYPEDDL

mouse femoral artery = assay: Homing to wire-injured femoral artery; type: in vivo
Experimental: (§1) The wire injury of the mouse femoral artery was induced as previously described (Komatsu, M. & Ruoslahti, E. (2005) Nat Med. (2005) 11:1346-1350). Thirty minutes after the wire injury, 250 μg of fluorescein-conjugated peptides were injected i.v. Muscle injuries were induced in mice by applying a crush injury to the quadriceps muscle, and 500 μg fluorescein-conjugated peptides were injected i.v. 48 hours later. Skin incisions were studied similarly. The mice were perfused through the heart 4 hours after the peptide injection, and tissues were excised, fixed in 4% paraformaldehyde, and embedded in OCT.

quadriceps muscle = assay: Homing to muscle crush injury; type: in vivo, mouse
Experimental: as §1

[1] = system: orthotopic MDA-MB-435 xenograft tumors; assay: Tumor homing of i.v. injected fluorescein-conjugated peptides, MDA-MB-435 xenografts; type: in vivo, mouse
From the text: To determine whether the CLT peptides would recognize clotted plasma proteins in vivo, the peptides were synthesized as fluorescein conjugates and imaged their accumulation in tumors. Mice bearing orthotopic MDA-MB-435 xenograft tumors were intravenously injected with fluorescein-conjugated CLT1 (n=6), CLT2 (n=4), or a control peptide (n=4) with the sequence KAREC (SEQ ID NO: 5).
B16F1 mouse melanoma, Lewis lung carcinoma, C8161 human melanoma, MDA-MB-435 human breast cancer, and PPC-1 human prostate cancer cells (American Type Culture Collection) were maintained in RPMI or DMEM supplemented with 10% FCS. Human tumor cells (1×10^6) were injected into the mammary fat pad or the flank of nude BALB/c nu/nu mice to induce tumors. MMTV PyMT mice were provided by Dr. Robert Oshima (Burnham Institute for Medical Research, La Jolla, Calif.). The MMTV PyMT mice develop breast cancer under the influence of a polyoma middle T antigen driven by the mouse tumor virus promoter (Siegel, P. M., Ryan, E. D., Cardiff, R. D., Muller W. J. (1999) EMBO J., 18, 2149-64). B16F1 tumors induced by injecting 1×10^6 cells subcutaneously were grown in the flank of fibrinogen knock-out mice (Suh, T. T., Holmback, K., Jensen, N. J., Daugherty, C. C., Small, K., Simon, D. I., Potter, S., & Degen, J. L. (1995) Genes Dev. 9, 2020-2033), and of transgenic plasma fibronectin-deficient C57BL/6-Fn(f1/f1) Mx-Cre^+ (Sakai, T., Johnson, K. J., Murozono, M., Sakai, K., Magnuson, M. A., Wieloch, T., Cronberg, T., Isshiki, A., Erickson, H. P., & Fassler R. (2001) Nat. Med. 7, 324-30) and their wild type littermates. Deletion of the fibronectin gene in the liver was induced by poly(I):poly(C) (Yi, M., Sakai, T., Fassler, R., & Ruoslahti, E. (2003) Proc. Natl. Acad. Sci. USA. 100, 11435-11438). Frozen human tissues from clinical breast cancers were provided by the Western Division of the NCI Cooperative Human Tissue Network (Vanderbilt University Medical Center, Nashville, Tenn.).
Peptides were synthesized and conjugated to fluorescein isothiocyanate as described (Laakonen et al. PNAS 2004), and cyclized by exposure to air.
Imaging under a blue light, and examination of the distribution of fluorescein-conjugated peptides after tail vein injection have been described (Hoffman, R. M. (2005) Nature Reviews Cancer 5, 796-806; Laakkonen, P., Akerman, M. E., Biliran, H., Yang, M., Ferrer, F., Karpanen, T., Hoffman, R. M., & Ruoslahti E. (2004) Proc. Natl. Acad. Sci. USA 101, 9381-6).
The imaging methods are briefly described as follows: A Leica fluorescence stereomicroscope, model LZ12, equipped with a 50-W mercury lamp, was used for high-magnification imaging. Selective excitation of GFP was produced through a D425y60 band-pass filter and 470 DCXR dichroic mirror. Emitted fluorescence was collected through a long-pass filter GG475 (Chroma Technology, Brattleboro, Vt.) on a Hamamatsu C5810 3-chip cooled color charge-coupled device camera (Hamamatsu Photonics Systems, Bridgewater, N.J.). Images were processed for contrast and brightness and analyzed with the use of IMAGE PRO PLUS 3.1 software (Media Cybernetics, Silver Springs, Md.). Images of 1,024×724 pixels were captured directly on an IBM PC or continuously through video output on a high-resolution Sony VCR model SLV-R1000 (Sony, Tokyo). Imaging at lower magnification that visualized the entire animal was carried out in a light box illuminated by blue light fiber optics (Lightools Research, Encinitas, Calif.) and imaged by using the thermoelectrically cooled color charge-coupled device camera, as described above (Yang, M., Baranov, E., Jiang, P., Sun, F-X., Li, X-M., Li, L., Hasegawa, S., Bouvet, M., Al-Tuwaijri, M., Chishima, T., et al (2000) Proc. Natl. Acad. Sci. USA 97, 1206-11).
The mice were perfused through the heart 3 hours after the peptide injection and tissues removed for examination. […]

[2] = system: human umbilical venous endothelial cells (HUVECs); type: cell-based; details: HUVECs
From the text: CLT1 contains a sequence of three consecutive hydrophobic residues, LII (leucine-isoleucine-isoleucine). This motif is very similar to the VII sequence (V, valine) which causes proteins to form large insoluble aggregates (Esteras-Chopo et al. 2005). […] The ability of CLT1 to aggregate proteins correlates with its cytotoxicity for human umbilical venous endothelial cells (HUVECs).

skin = assay: Homing to skin incision; type: in vivo, mouse
Experimental: as §1

mitochondrial membranes = details: concentration of 10 μM; cited from earlier work
[3] = 500 μg fluorescein-conjugated peptide i.v., 3 h

Substance: Anginex
- aggregate formation in presence of fibronectin (fibronectin): form aggregates
- aggregate formation in presence of fibrinogen (fibrinogen): form aggregates

Substance: CNAGESSKNC (also: cyclic, ring type not given here, fluorescein conjugate, site not given here) [CLT2, cyclic decapeptide from phage library screened on plasma clots; tested as fluorescein conjugate]
- homing to normal (intact) femoral artery (mouse femoral artery; uninjured): not to a normal femoral artery
- homing to injured femoral artery (mouse femoral artery; wire injury 30 min earlier, 250 μg i.v.): homes
- homing to muscle crush injury (quadriceps muscle; injury 48 hours earlier, 500 μg i.v.): accumulate
- homing to normal muscle (quadriceps muscle; uninjured): negative
- fluorescence in control / healthy organs [1, 3]: not in control organs
- fluorescence in tumors, whole tissues under blue light [1, 3]: intense fluorescence; also recorded: strong fluorescence
- histological distribution of peptide fluorescence within the tumor ([1]; fluorescein-conjugated peptide i.v., 3 h, 400×): distributed in a network pattern
- tumor homing / fluorescence on co-injection with unlabeled CLT2 ([1]; unlabeled CLT2 in 5 fold excess): strongly reduced
- cytotoxicity for endothelial cells [2]: nor cytotoxic
- homing to skin incision (skin; incision 48 hours earlier): accumulate
- homing to normal skin (skin; uninjured): negative

Substance: D(KLAKLAK)2 (KLAKLAKKLAKLAK; D-amino acids) [antimicrobial peptide]
- mitochondrial swelling (mitochondrial membranes): marked mitochondrial swelling

Substance: KAREC (also: fluorescein conjugate, site not given here) [reference compound]
- fluorescence in tumors, whole tissues under blue light [1, 3]: essentially no fluorescence
